Data published in paper PMC11696576, “Next generation thiazolyl ketone inhibitors of cytosolic phospholipase A2 α for targeted cancer therapy” (Nature Communications, 2025).
Several values for one entry are separate records, joined by “and”; a condition that tells them apart may be missing. Equal values may be shown once. Read-outs that look alike come from different tables or passages of the source. Marks after values point to notes of the source that are not given here.

Columns and labels:
[1] = molecular target: T1, human calcium-independent GVIA iPLA2 (Homo sapiens, UniProt O60733); assay: radioactivity-based mixed micelle assay, GVIA iPLA2; type: biochemical
T1 sequence (O60733 1-806): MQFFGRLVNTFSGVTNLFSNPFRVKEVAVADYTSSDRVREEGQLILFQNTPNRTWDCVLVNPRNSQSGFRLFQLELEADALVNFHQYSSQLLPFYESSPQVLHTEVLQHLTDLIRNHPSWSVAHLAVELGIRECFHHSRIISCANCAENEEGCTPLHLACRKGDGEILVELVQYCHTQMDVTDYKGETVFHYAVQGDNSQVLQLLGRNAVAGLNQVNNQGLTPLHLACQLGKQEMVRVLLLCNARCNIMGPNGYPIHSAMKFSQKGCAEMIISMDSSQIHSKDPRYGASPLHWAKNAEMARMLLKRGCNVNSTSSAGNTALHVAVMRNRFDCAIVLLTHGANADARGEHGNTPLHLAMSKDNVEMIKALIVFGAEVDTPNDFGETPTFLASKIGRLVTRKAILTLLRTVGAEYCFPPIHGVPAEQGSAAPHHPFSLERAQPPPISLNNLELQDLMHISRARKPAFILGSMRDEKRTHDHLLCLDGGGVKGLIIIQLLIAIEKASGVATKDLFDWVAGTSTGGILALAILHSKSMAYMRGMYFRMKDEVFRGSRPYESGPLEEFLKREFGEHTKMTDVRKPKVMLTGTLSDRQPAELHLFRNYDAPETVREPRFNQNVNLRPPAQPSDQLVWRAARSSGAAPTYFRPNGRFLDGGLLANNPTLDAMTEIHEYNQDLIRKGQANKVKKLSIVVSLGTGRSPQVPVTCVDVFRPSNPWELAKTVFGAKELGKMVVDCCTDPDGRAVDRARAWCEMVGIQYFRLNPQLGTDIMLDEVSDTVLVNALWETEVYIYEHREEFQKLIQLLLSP
Description: All synthesized thiazolyl ketones were tested for their in vitro inhibitory activity on recombinant human cPLA2α and selectivity over human calcium-independent GVIA iPLA2 and secreted GV sPLA2 using our previously described group-specific radioactivity-based mixed micelle assays. The inhibition results are presented either as per cent inhibition or as XI(50) values in Table 1. […] The XI(50) is defined as the mole fraction of the inhibitor in the total substrate interface required to inhibit the enzyme activity by 50%. For comparison purposes, previously published data for the inhibitor GK470[19] are included. […] Inhibitors were initially screened at 0.091 mol fraction (5 μL of 5 mM inhibitor in DMSO) in substrate (495 μL) in technical triplicates. […] The XI(50) value and stdev values reported are for the entire curve. This analysis was performed in GraphPad Prism v6.

[2] = stability in human plasma (LC-MS/MS); type: in vitro ADME; conditions: for Stability in human plasma 4 h: % of the compound remaining after 4 h
Description: The stability of the analogs in human plasma was studied over approximately 24 h by LC-MS/MS and the results at 4 h and the final timepoint (20–25 h) are included in Table 1.
The metabolic stability of the compounds was determined through in vitro stability assays in human plasma. Solutions of compounds in DMSO (20 mM) were diluted to 5 μg/mL in 50% methanol for infusion into the MS/MS system and spiking of calibration standards and control samples. For the MS detection, positive ionization in ESI mode was used. Good sensitivity, retention and peak shaped were achieved using a gradient with 5 mM ammonium carbamate in water and ammonium carbamate in 90% acetonitrile on a reversed phase column (ACE3AQ). Calibration standards were spiked in a calibration range of 0.5–100 ng/ml. Control samples were spiked at, low, medium, and high concentration levels. The spiked plasma samples were prepared by protein precipitation using acetonitrile containing appropriate internal standard (IS). […] Samples were prepared for analysis by taking 50 μL of plasma sample and adding 100 μL of IS working solution in acetonitrile followed by vortexing at 2500 rpm (Multi-tube vortexer DVX-2500, Henry Troemner LLC, USA) for 2 min. The samples were centrifuged at 5300 rpm (Heraeus Megafuge 1.0 Heraeus, Germany) for 3 min and the supernatant transferred to the autosampler. Recovery was determined by comparing the prepared matrix samples (protein precipitation) with a direct sample (analytes spikes in 67% acetonitrile = injection solution) such that the recovery of the sample preparation and the matrix effects were determined together. Two or three samples were each measured in technical triplicates to give the final % recovery.

SW982 synoviocytes = assay: cellular arachidonic acid (AA) release assay, IL-1β stimulated; type: cell-based, human; conditions: for inhibition at 1 µM / inhibition at 5 µM / EC50 / IC50: Homo sapiens; for inhibition at 5 µM: SW982, 5 µM; for EC50 / IC50: SW982; for IC50: concentration in µM, read-out: logEC50 best-fit value, AA release (converted)
Excerpt: To test the inhibitory activity of the compounds in cells, we measured their effect on the release of AA from synoviocytes stimulated with IL-1β (Table 2). […] Combined with favorable selectivity and stability it was thus chosen for further evaluation. We looked specifically at how it modulated eicosanoid levels in response to stimulation both in whole blood and in isolated peripheral blood mononuclear cells (PBMCs) and checked for off-target effects on AA metabolism in whole blood by also measuring the effect of GK420 on eicosanoid release in the presence of exogenous free AA.
The human synovial sarcoma cell line SW982 (ATCC, London, UK) was used to measure AA release. The cells were maintained in Dulbecco’s Modified Eagle Medium (DMEM) supplemented with 10% FBS, 0.1 mg/mL gentamicin, and 0.3 mg/mL L-glutamine at 37 °C with 10% CO2, and experiments were performed at 3 days post-confluence. To measure AA release, the cells were labeled overnight with ^3H-AA (0.4 μCi/mL) in serum-free DMEM and then washed twice with PBS containing fBSA (2 mg/mL) to remove unincorporated radioactivity. The inhibitors, or DMSO vehicle control, were subsequently added to the cells for 1 hour prior to stimulation with 10 ng/mL IL-1β for 4 h. Supernatants were collected and centrifuged at 300 × g for 5 min to clear them of detached cells and adherent cells were dissolved in 1 N NaOH. The ^3H-AA was assessed by liquid scintillation counting (LS 6500 Multi-Purpose Scintillation Counter, Beckman Coulter, Inc., USA) and the results are given as the inhibition of released ^3H-AA in the supernatants relative to total ^3H-AA incorporated into the cells, as described. EC50 values were calculated by fitting the % inhibition data to a three-parameter dose-response curve in GraphPad prism v10.4.0. Experiments were performed in technical triplicates and repeated at least three times.

[3] = 0.091 mole fraction, read-out: GVIA iPLA2 % Inhib
[4] = average of triplicates, read-out: iPLA2 % inhibition at 0.091 mole fraction, average
[5] = individual technical replicate, read-out: iPLA2 % inhibition at 0.091 mole fraction
[6] = individual sample, human plasma
[7] = 0.2 µM, individual biological replicate
[8] = 1 µM, individual biological replicate
[9] = 5 µM, individual biological replicate
[10] = SW982, 1 µM, individual biological replicate, read-out: % inhibition of stimulated AA release
[11] = individual biological replicate
[12] = SW982, 4 h, 1 µM inhibitor, IL-1β 4 h, mean ± stdev, read-out: AA release % Inhib
[13] = IL-1β 4 h, 0.2, 1 or 5 µM inhibitor, read-out: AA release EC50 µM (95% CI)
[14] = [Agonist] vs. Response (three parameters)
[15] = [Agonist] vs. Response (three parameters), read-out: EC50 best-fit value, AA release
[16] = % of the compound remaining after 24 h 39 min (*)

| Structure (SMILES) | inhibition at 0.091 mole fraction [1, 3] [%] | inhibition at 0.091 mole fraction [1, 4] [%] | inhibition at 0.091 mole fraction [1, 5] [%] | Stability in human plasma 4 h [2] [%] | Stability in human plasma 20+ h ([2]; % of the compound remaining after 25 h (¤)) | plasma stability 4h (%) [2, 6] | plasma stability 25h (%) [2, 6] | % inhibition of stimulated AA release (SW982 synoviocytes; [7]) | % inhibition of stimulated AA release (SW982 synoviocytes; [8]) | % inhibition of stimulated AA release (SW982 synoviocytes; [9]) | inhibition at 1 µM (SW982 synoviocytes; [10]) [%] | inhibition at 5 µM (SW982 synoviocytes; [11]) [%] | inhibition at 1 µM (SW982 synoviocytes; [12]) [%] | EC50 (SW982 synoviocytes; [13]) [µM] | IC50 (SW982 synoviocytes; [14]) [µM] | EC50 (SW982 synoviocytes; [15]) [µM] | Stability in human plasma 20+ h ([2]; % of the compound remaining after 20 h) [%] | plasma stability 20h (%) [2, 6] | Stability in human plasma 20+ h [2, 16] | plasma stability 24h39min (%) [2, 6] |
| --- | --- | --- | --- | --- | --- | --- | --- | --- | --- | --- | --- | --- | --- | --- | --- | --- | --- | --- | --- | --- |
| CCCCCCCCc1ccc(OCC(=O)c2nc(C(=O)OCC)cs2)cc1 [GK401] | 40 | 39.8 | 41.2 | 69.3 | 16.25¤ % | 65.9% and 74% and 67.2% | 16.8% and 15.7% | 23.49% and 44.31% and 23.09% and 42.93% | 46.19% and 56.11% and 60.73% | 83.12% and 89.8% and 99.4% | 49.8 | 92.1 | 53 ± 6 | 0.63 | 0.63 | 0.63 |  |  |  |  |
| COC(=O)c1csc(C(=O)C(C)Oc2ccc(Oc3ccccc3)cc2)n1 (centres unmarked) [GK428] | 54 | 53.6 | 54.3 | 35.9 |  | 36.5% and 35.3% |  | 5.86% and -31.46% and 2.89% and 15.93% | 17.3% and 4.11% and 8.14% and 18.84% | 51.1% and 33.6% and 14.73% and 37.63% |  |  | 12 ± 7 | 9.34 | 9.34 | 9.34 | 1.65 | 2.1% and 1.2% |  |  |
| CCCCCCSc1ccc(OC(C)C(=O)c2nc(C(=O)OC)cs2)cc1 (centres unmarked) [GK449] | 67 | 67.1 | 73.4 | 63 |  | 58.4% and 67.6% |  | 16.56% and 7.46% and 9.46% and 46.5% | 47.16% and 43.5% and 67.91% and 74.94% | 92.05% and 77.81% and 56.83% and 101.84% |  |  | 58 ± 15 | 0.78 | 0.783 | 0.783 |  |  | 18.35* % | 16.1% and 20.6% |
| COC(=O)c1csc(C(=O)COc2ccc(Oc3ccc(F)cc3)cc2)n1 [GK440] | 0 | 0 | 0 | 21.3 |  | 20.1% and 22.4% |  | 52.34% and 48.93% and 32.32% and 54.12% | 77.97% and 89.75% and 95.95% | 121.05% and 107.56% and 129.55% and 117.95% | 90 |  | 88 ± 8 | 0.18 | 0.184 | 0.184 |  |  | 0.9* % | 0.5% and 1.3% |
| CCCCCCCOc1ccc(OC(C)C(=O)c2nc(C(=O)OC)cs2)cc1 (centres unmarked) [GK439] | 67 | 66.9 | 68.3 | 59.9 |  | 55.1% and 64.7% |  | 39.77% and 13.25% and 29.88% and 48.17% | 95.13% and 73.24% and 73.33% and 76.5% | 98.88% and 99.59% and 96.75% |  | 116 | 80 ± 10 | 0.32 | 0.325 | 0.325 |  |  | 12.8* % | 10.7% and 14.8% |
